# Assay results: patent US20120220603A1, “SUBSTITUTED HETEROCYCLIC DERIVATIVES FOR THE TREATMENT OF PAIN AND EPILEPSY” (ZALICUS PHARMACEUTICALS LTD., priority 2009, published 2012)
# Legend:
# human Nav1.5 channel = target: T1, human Nav1.5 channel (Homo sapiens, UniProt Q14524); experiment: NaV1.5 sodium channel screening assay, PatchXpress automated electrophysiology, cardiac action potential waveform 1 Hz; type: cell-based; settings: cardiac action potential waveform at 1 Hz; HEK cells; read-out: HNAv 1.5 Cardiac AP 1 Hz IC50
# T1 construct: expressed in transfected cells; host or cells: HEK cells
# Description: Inhibition of the TTX-resistant NaV1.5 sodium channel, a key cardiac ion channel, can have profound effects on the duration and amplitude of the cardiac action potential and can result in arrhythmias and other heart malfunctions. To assess the potential cardiac liability of compounds at an early stage in the drug discovery process, a NaV1.5 sodium channel screening assay is performed on Molecular Device's PatchXpress™ automated electrophysiology platform. Under voltage-calmp conditions, NaV1.5 currents were recorded from HEK cells expressing the human Nav1.5 channel in the absence and presence of increasing concentrations of the test compound to obtain an IC50 value. The external recording solution contained (in mM): 90 TEACl, 50 NaCl, 1.8 CaCl, 1 MgCl2, 10 HEPES, 10 glucose, adjusted to pH 7.4 with TEA-OH and to 300 mOsm with sucrose (if necessary), while the internal patch pipette solution contained (in mM): 129 CsF, 2 MgCl2, 11 EGTA, 10 HEPES, 3 Na2ATP adjusted to pH 7.2 with CsOH and to 290 mOsm with sucrose (if necessary). NaV1.5 channel currents were evoked using a cardiac action potential waveform at 1 Hz, digitized at 31.25 kHz and low-pass filtered at 12 kHz.
# [1] = Rat Early Pharmacokinetic (EPK) study; type: in vivo; settings: PO, 3 mg/kg, formulation PG (propylene glycol)
# Description: Male Sprague-Dawley rats were dosed via oral (PO) gavage in the detailed formulation. Blood samples were collected from the animals at 6 timepoints out to 4 hours post-dose. Pharmacokinetic analysis was performed on the LC-MS/MS measured concentrations for each timepoint of each compound.
# T1 sequence (Q14524 whole entry): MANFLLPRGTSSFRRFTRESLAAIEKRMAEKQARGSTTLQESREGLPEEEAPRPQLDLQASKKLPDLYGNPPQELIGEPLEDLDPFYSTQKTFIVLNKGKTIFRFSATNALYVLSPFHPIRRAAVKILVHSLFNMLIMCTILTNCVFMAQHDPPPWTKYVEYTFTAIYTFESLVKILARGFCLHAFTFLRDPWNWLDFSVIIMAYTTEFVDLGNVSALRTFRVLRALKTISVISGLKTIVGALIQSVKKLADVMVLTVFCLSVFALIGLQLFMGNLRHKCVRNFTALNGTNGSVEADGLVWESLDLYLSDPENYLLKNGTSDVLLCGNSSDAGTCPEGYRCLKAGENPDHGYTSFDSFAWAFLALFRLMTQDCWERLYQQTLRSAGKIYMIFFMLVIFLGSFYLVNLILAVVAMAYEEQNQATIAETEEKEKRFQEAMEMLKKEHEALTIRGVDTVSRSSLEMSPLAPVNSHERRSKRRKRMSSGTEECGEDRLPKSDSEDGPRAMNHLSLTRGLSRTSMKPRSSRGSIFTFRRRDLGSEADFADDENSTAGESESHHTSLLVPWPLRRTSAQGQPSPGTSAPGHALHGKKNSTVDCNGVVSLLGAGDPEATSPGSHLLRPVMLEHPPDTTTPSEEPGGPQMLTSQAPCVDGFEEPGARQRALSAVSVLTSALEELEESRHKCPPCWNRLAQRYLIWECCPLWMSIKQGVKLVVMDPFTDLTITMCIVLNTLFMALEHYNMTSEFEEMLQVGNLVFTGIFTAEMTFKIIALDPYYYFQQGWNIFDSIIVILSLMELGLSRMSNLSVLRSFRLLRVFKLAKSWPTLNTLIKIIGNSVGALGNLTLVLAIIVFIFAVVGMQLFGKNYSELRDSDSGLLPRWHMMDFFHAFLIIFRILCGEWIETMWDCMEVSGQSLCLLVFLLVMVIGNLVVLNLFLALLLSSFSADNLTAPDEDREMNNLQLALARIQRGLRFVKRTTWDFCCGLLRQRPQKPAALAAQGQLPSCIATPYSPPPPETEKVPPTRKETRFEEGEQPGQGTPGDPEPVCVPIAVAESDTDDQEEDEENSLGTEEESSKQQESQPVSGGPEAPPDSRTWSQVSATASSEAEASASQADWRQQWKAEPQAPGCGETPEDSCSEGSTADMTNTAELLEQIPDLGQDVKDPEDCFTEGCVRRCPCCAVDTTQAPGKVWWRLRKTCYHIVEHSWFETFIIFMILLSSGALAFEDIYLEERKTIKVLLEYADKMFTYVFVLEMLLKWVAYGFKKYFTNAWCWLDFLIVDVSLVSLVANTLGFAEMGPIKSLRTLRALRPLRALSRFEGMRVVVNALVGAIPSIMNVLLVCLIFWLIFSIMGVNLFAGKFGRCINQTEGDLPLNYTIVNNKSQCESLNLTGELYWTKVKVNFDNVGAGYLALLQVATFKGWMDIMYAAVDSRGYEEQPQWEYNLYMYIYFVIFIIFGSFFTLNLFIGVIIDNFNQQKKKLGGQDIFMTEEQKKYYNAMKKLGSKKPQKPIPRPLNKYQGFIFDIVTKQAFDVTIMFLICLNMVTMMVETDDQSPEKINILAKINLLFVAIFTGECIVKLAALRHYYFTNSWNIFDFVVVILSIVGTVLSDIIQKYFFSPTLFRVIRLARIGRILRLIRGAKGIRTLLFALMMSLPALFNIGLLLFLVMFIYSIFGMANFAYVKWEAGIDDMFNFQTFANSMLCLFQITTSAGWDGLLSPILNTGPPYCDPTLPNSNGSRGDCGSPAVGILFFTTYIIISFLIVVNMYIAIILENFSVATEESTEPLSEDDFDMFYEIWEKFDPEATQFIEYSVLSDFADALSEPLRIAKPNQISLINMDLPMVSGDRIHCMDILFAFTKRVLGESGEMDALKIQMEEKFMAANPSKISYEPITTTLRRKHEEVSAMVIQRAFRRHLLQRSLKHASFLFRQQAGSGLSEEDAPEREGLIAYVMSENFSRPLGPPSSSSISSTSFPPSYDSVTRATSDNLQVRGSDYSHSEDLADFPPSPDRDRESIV
structure (smiles),measurement,setting,value
"O=C(CN1CCNCC1)Nc1cc(C(F)(F)F)cc(C(F)(F)F)c1 [Compound 5, N-(3,5-bis(trifluoromethyl)phenyl)-2-(piperazin-1-yl)acetamide]",IC50,human Nav1.5 channel,40 µM
same,Dose Normalized AUC,[1],108 nM·h
same,Dose Normalized Cmax,[1],48 nM
same,Tmax,"[1]; male, Sprague-Dawley, blood",1.8 h
